Results published in publication PMC8699473, “An Easily Expandable Multi-Drug LC-MS Assay for the Simultaneous Quantification of 57 Oral Antitumor Drugs in Human Plasma” (Cancers, 2021).

Test: Long-term stability in spiked pooled human plasma

Row | SMILES | Long-term stability, 1 month, -20°C Accuracy [%] (validation standard 2xLLOV) | Long-term stability, 1 month, -80°C Accuracy [%] (validation standard 2xLLOV) | Long-term stability, 2 month, -20°C Accuracy [%] (validation standard 2xLLOV) | Long-term stability, 2 month, -80°C Accuracy [%] (validation standard 2xLLOV) | Long-term stability, 3 month, -20°C Accuracy [%] (validation standard 2xLLOV) | Long-term stability, 3 month, -80°C Accuracy [%] (validation standard 2xLLOV) | Long-term stability, 6 weeks, 4°C, without daylight Accuracy [%] (validation standard 2xLLOV) | Long-term stability, 1 month, -20°C Accuracy [%] (validation standard MOV) | Long-term stability, 1 month, -80°C Accuracy [%] (validation standard MOV) | Long-term stability, 2 month, -20°C Accuracy [%] (validation standard MOV) | Long-term stability, 2 month, -80°C Accuracy [%] (validation standard MOV) | Long-term stability, 3 month, -20°C Accuracy [%] (validation standard MOV) | Long-term stability, 3 month, -80°C Accuracy [%] (validation standard MOV) | Long-term stability, 6 weeks, 4°C, without daylight Accuracy [%] (validation standard MOV) | Long-term stability, 1 month, -20°C Accuracy [%] (validation standard ULOV) | Long-term stability, 1 month, -80°C Accuracy [%] (validation standard ULOV) | Long-term stability, 2 month, -20°C Accuracy [%] (validation standard ULOV) | Long-term stability, 2 month, -80°C Accuracy [%] (validation standard ULOV) | Long-term stability, 3 month, -20°C Accuracy [%] (validation standard ULOV) | Long-term stability, 3 month, -80°C Accuracy [%] (validation standard ULOV) | other results
1 | COc1cc2c(Nc3ccc(Br)cc3F)ncnc2cc1OCC1CCN(C)CC1 [Vandetanib] | 99.7% | 97.7% | 105.9% | 106.4% | 101.7% | 101.7% | 92.2% | 98.6% | 95.9% | 105.7% | 105.2% | 105.3% | 104.4% | 100.6% | 93.1% | 88.0% | 98.6% | 98.6% | 97.4% | 98.8% | Long-term stability, 1 month, -20°C Accuracy [%] (validation standard LLOV): 95.3%; Long-term stability, 1 month, -80°C Accuracy [%] (validation standard LLOV): 88.9%; Long-term stability, 2 month, -20°C Accuracy [%] (validation standard LLOV): 97.5%; Long-term stability, 2 month, -80°C Accuracy [%] (validation standard LLOV): 97.6%; Long-term stability, 3 month, -20°C Accuracy [%] (validation standard LLOV): 87.6%; Long-term stability, 3 month, -80°C Accuracy [%] (validation standard LLOV): 83.6%; Long-term stability, 6 weeks, 4°C, without daylight Accuracy [%] (validation standard LLOV): 85.4%; Long-term stability, 6 weeks, 4°C, without daylight Accuracy [%] (validation standard ULOV): 93.5%
2 | Cc1ccc(Nc2nccc(N(C)c3ccc4c(C)n(C)nc4c3)n2)cc1S(N)(=O)=O [Pazopanib] | 99.1% | 95.8% | 100.4% | 103.8% | 106.9% | 104.8% | 96.5% | 96.3% | 95.8% | 98.8% | 98.1% | 103.3% | 103.3% | 109.7% | 97.3% | 93.0% | 98.8% | 98.3% | 98.1% | 100.0% | Long-term stability, 1 month, -20°C Accuracy [%] (validation standard LLOV): 102.3%; Long-term stability, 1 month, -80°C Accuracy [%] (validation standard LLOV): 97.4%; Long-term stability, 2 month, -20°C Accuracy [%] (validation standard LLOV): 106.7%; Long-term stability, 2 month, -80°C Accuracy [%] (validation standard LLOV): 108.3%; Long-term stability, 3 month, -20°C Accuracy [%] (validation standard LLOV): 103.9%; Long-term stability, 3 month, -80°C Accuracy [%] (validation standard LLOV): 103.6%; Long-term stability, 6 weeks, 4°C, without daylight Accuracy [%] (validation standard LLOV): 99.0%; Long-term stability, 6 weeks, 4°C, without daylight Accuracy [%] (validation standard ULOV): 98.9%
3 | CC(C)(C)c1nc(-c2cccc(NS(=O)(=O)c3c(F)cccc3F)c2F)c(-c2ccnc(N)n2)s1 [Dabrafenib] | 101.2% | 93.1% | 98.6% | 101.3% | 96.6% | 101.7% | 107.2% | 96.1% | 92.3% | 97.8% | 98.9% | 100.3% | 98.0% | 107.2% | 97.0% | 92.2% | 97.4% | 98.0% | 96.3% | 98.6% | Long-term stability, 1 month, -20°C Accuracy [%] (validation standard LLOV): 101.0%; Long-term stability, 1 month, -80°C Accuracy [%] (validation standard LLOV): 96.1%; Long-term stability, 2 month, -20°C Accuracy [%] (validation standard LLOV): 99.0%; Long-term stability, 2 month, -80°C Accuracy [%] (validation standard LLOV): 97.9%; Long-term stability, 3 month, -20°C Accuracy [%] (validation standard LLOV): 97.1%; Long-term stability, 3 month, -80°C Accuracy [%] (validation standard LLOV): 96.6%; Long-term stability, 6 weeks, 4°C, without daylight Accuracy [%] (validation standard LLOV): 102.4%; Long-term stability, 6 weeks, 4°C, without daylight Accuracy [%] (validation standard ULOV): 100.6%
4 | C=CC(=O)Nc1cc(Nc2nccc(-c3cn(C)c4ccccc34)n2)c(OC)cc1N(C)CCN(C)C [Osimertinib] | 95.2% | 93.2% | 89.2% | 103.9% | 82.8% | 100.0% | 10.5% | 97.0% | 96.6% | 95.2% | 101.6% | 90.9% | 101.8% | 53.4% | 92.3% | 93.2% | 91.4% | 101.4% | 88.6% | 93.8% | Long-term stability, 1 month, -20°C Accuracy [%] (validation standard LLOV): 83.0%; Long-term stability, 1 month, -80°C Accuracy [%] (validation standard LLOV): 86.9%; Long-term stability, 2 month, -20°C Accuracy [%] (validation standard LLOV): 84.8%; Long-term stability, 2 month, -80°C Accuracy [%] (validation standard LLOV): 96.9%; Long-term stability, 3 month, -20°C Accuracy [%] (validation standard LLOV): 66.7%; Long-term stability, 3 month, -80°C Accuracy [%] (validation standard LLOV): 91.8%; Long-term stability, 6 weeks, 4°C, without daylight Accuracy [%] (validation standard LLOV): 5.4%; Long-term stability, 6 weeks, 4°C, without daylight Accuracy [%] (validation standard ULOV): 41.5%
5 | COc1cc2ncnc(Nc3ccc(F)c(Cl)c3)c2cc1OCCCN1CCOCC1 [Gefitinib] | 99.2% | 94.2% | 105.6% | 108.5% | 103.9% | 101.3% | 89.3% | 100.7% | 99.3% | 105.1% | 104.1% | 102.7% | 99.9% | 105.7% | 98.5% | 93.5% | 99.2% | 101.3% | 99.2% | 99.2% | Long-term stability, 1 month, -20°C Accuracy [%] (validation standard LLOV): 95.8%; Long-term stability, 1 month, -80°C Accuracy [%] (validation standard LLOV): 89.0%; Long-term stability, 2 month, -20°C Accuracy [%] (validation standard LLOV): 101.3%; Long-term stability, 2 month, -80°C Accuracy [%] (validation standard LLOV): 102.7%; Long-term stability, 3 month, -20°C Accuracy [%] (validation standard LLOV): 100.2%; Long-term stability, 3 month, -80°C Accuracy [%] (validation standard LLOV): 99.5%; Long-term stability, 6 weeks, 4°C, without daylight Accuracy [%] (validation standard LLOV): 78.5%; Long-term stability, 6 weeks, 4°C, without daylight Accuracy [%] (validation standard ULOV): 97.6%
6 | Cc1ccc(C(=O)Nc2ccc(CN3CCN(C)CC3)c(C(F)(F)F)c2)cc1C#Cc1cnc2cccnn12 [Ponatinib] | 99.2% | 94.7% | 95.8% | 97.8% | 93.4% | 98.9% | 91.7% | 92.3% | 93.7% | 99.2% | 101.1% | 95.0% | 95.3% | 97.9% | 95.0% | 90.8% | 97.0% | 100.1% | 93.8% | 93.5% | Long-term stability, 6 weeks, 4°C, without daylight Accuracy [%] (validation standard ULOV): 89.4%
7 | CC1(C)CCC(CN2CCN(c3ccc(C(=O)NS(=O)(=O)c4ccc(NCC5CCOCC5)c([N+](=O)[O-])c4)c(Oc4cnc5[nH]ccc5c4)c3)CC2)=C(c2ccc(Cl)cc2)C1 [Venetoclax] | 102.9% | 104.0% | 104.9% | 111.9% | 85.1% | 101.9% | 99.8% | 99.9% | 103.6% | 109.3% | 110.0% | 100.0% | 99.6% | 99.5% | 108.0% | 102.7% | 112.4% | 114.0% | 92.9% | 102.2% | Long-term stability, 1 month, -20°C Accuracy [%] (validation standard LLOV): 111.0%; Long-term stability, 1 month, -80°C Accuracy [%] (validation standard LLOV): 109.1%; Long-term stability, 2 month, -20°C Accuracy [%] (validation standard LLOV): 105.5%; Long-term stability, 2 month, -80°C Accuracy [%] (validation standard LLOV): 115.7%; Long-term stability, 3 month, -20°C Accuracy [%] (validation standard LLOV): 101.9%; Long-term stability, 3 month, -80°C Accuracy [%] (validation standard LLOV): 99.3%; Long-term stability, 6 weeks, 4°C, without daylight Accuracy [%] (validation standard LLOV): 92.7%; Long-term stability, 6 weeks, 4°C, without daylight Accuracy [%] (validation standard ULOV): 95.2%
8 | CCN1CCN(Cc2ccc(Nc3ncc(F)c(-c4cc(F)c5nc(C)n(C(C)C)c5c4)n3)nc2)CC1 [Abemaciclib] | 95.0% | 90.1% | 109.1% | 111.4% | 98.8% | 103.4% | 92.0% | 103.0% | 96.2% | 107.3% | 105.5% | 104.4% | 101.8% | 106.3% | 102.4% | 97.8% | 106.0% | 105.1% | 103.5% | 99.9% | Long-term stability, 1 month, -20°C Accuracy [%] (validation standard LLOV): 103.5%; Long-term stability, 1 month, -80°C Accuracy [%] (validation standard LLOV): 88.4%; Long-term stability, 2 month, -20°C Accuracy [%] (validation standard LLOV): 107.2%; Long-term stability, 2 month, -80°C Accuracy [%] (validation standard LLOV): 112.7%; Long-term stability, 3 month, -20°C Accuracy [%] (validation standard LLOV): 95.7%; Long-term stability, 3 month, -80°C Accuracy [%] (validation standard LLOV): 101.8%; Long-term stability, 6 weeks, 4°C, without daylight Accuracy [%] (validation standard LLOV): 86.3%; Long-term stability, 6 weeks, 4°C, without daylight Accuracy [%] (validation standard ULOV): 99.1%
